# Data from US20140140969A1, “METHODS AND COMPOSITIONS FOR MUSCULAR DYSTROPHIES” (Sangamo BioSciences, Inc., priority 2012, published 2014).
# Columns and labels:
# human myoblasts = test: In vitro selection of MGMT^P140K-2A-GFP gene-targeted myoblasts with BG/BCNU; assay type: cell-based
# From the text: Consequently, we next verified whether expression from the integrated MGMT^P140K gene, along with the eGFP reporter gene to facilitate tracking of transduced cells, was sufficient to confer myoblasts protection against treatments with BG and BCNU (FIG. 4A). Using IDLV to deliver a MGMT^P140K-eGFP template DNA flanked by CCR5 homology arms, we obtained 40-50% gene addition in myoblasts in the absence of drug selection (FIG. 4B and C). However, to fully evaluate the selection potential of the BG/BCNU combination, we thought it would be more appropriate to work with a population containing a much lower level of gene addition. As such, we generated two populations of gene-targeted myoblasts containing either 3% or 35% of cells expressing the MGMT^P140K-2A-GFP gene using non-transduced cells for dilution. Both populations were exposed to 20 μM BG for one hour followed by increasing doses of BCNU (10, 25, 50 and 100 μM) for two hours (FIG. 4D).
# Myoblasts were then allowed to recover for one week after which the proportion of eGFP positive cells was analyzed by flow cytometry, a procedure defined as one cycle of drug selection. […] After three cycles of selection using the same concentration of BCNU, up to 45% of the myoblasts were positive for eGFP, representing a 15-fold enrichment over the initial population. […] In comparison, when starting with a population containing already 35% of gene-targeted myoblasts, over 85% of the cells were expressing eGFP after only one cycle of selection using 50 μM of BCNU (FIG. 4D).
# Four weeks post-transduction, gene modified myoblasts containing the MGMT^P140K-2A-GFP cassette inserted at the endogenous CCR5 locus were treated with 50 μM O6BG for two hours followed by increasing doses (range from 10-100 μM) of BCNU for one hour. Cells were then washed with PBS and allowed to proliferate in the presence of […] for seven days before being analyzed by FACS. Where indicated, this procedure was repeated up to two more times. Cells were maintained in the presence of O6BG during their post-treatment expansion to inactivate the endogenous MGMT gene.
# [1] = system: CCR5-specific ZFN pair (exon 3) (artificial); test: cell_activity; settings: Cel-1 assay in human myoblasts; cleavage over 30%
# [2] = starting population 3%, three cycles, 100 μM BCNU
Molecule,"effect of additional cycle of selection (human myoblasts; starting population 3%, beyond three cycles)","proportion of MGMT^P140K-2A-GFP expressing cells (human myoblasts; starting population 3%, one cycle, 20 μM BG then 100 μM BCNU) [%]",enrichment over the initial population (human myoblasts; [2]) [fold],proportion of myoblasts positive for eGFP (human myoblasts; [2]),"proportion of cells expressing eGFP (human myoblasts; starting population 35%, one cycle, 50 μM BCNU)",activity [1] [%]
"O=NN(CCCl)C(=O)NCCCl [BCNU, 1,3-bis(2-chloroethyl)-N-nitrosourea]",did not allow us to further increase the proportion of eGFP positive cells,11,15,up to 45%,over 85%,–
CCR5 locus exon 3 ZFN target,–,–,–,–,–,> 30
